Consider 18 molecules from ChEMBL document CHEMBL3286122, “Structure-assisted discovery of the first non-retinoid ligands for Retinol-Binding Protein 4” (Bioorg Med Chem Lett, 2014).

The structures appear in SMILES notation. The source made the active and inactive calls. The rule behind the calls is not given here.

One series addresses T1, Retinol-binding protein 4 (Homo sapiens, UniProt P02753). Nature of the series: Inhibition of human recombinant RBP4-transthyretin interaction by FRET analysis.
Details: not given
Take `FC(F)(F)c1cccc(CN2CCN(c3ncnc4sc5c(c34)CCC5)CC2)c1`: the concentration for half-maximal inhibition (IC50) – broadly, the midpoint of a concentration-inhibition curve – was determined as 24 nM.
As for `O=C(c1ccco1)N1CCC(c2ccccc2C(F)(F)F)CC1`, the 50% inhibitory concentration (IC50) worked out at 52 nM.
Take `COc1ccc(Cl)cc1NC(=O)N1CCN(CCc2ccccc2)CC1`: the 50% inhibitory concentration (IC50) is above 30000 nM.
Still for that read-out and setting: for `COc1ccc(Cl)cc1NC(=O)N1CCN(c2ncnc3sc4c(c23)CCC4)CC1` the value was 600 nM.
As to `COc1ccc(Cl)cc1NC(=O)N1CCN(c2ncccc2C(F)(F)F)CC1`, the IC50 was 130 nM.
Same read-out and setting: in the case of `COc1ccc(Cl)cc1NC(=O)N1CCN(c2ccccc2Cl)CC1` it was 1300 nM; in that of `FC(F)(F)c1ccnc(N2CCC(c3ccccc3C(F)(F)F)CC2)n1`, 28 nM.
Take `O=C(c1cnccc1C(F)(F)F)N1CCC(c2ccccc2C(F)(F)F)CC1`: the IC50 came to 76 nM.

For the next series, the system named is Liver microsome. Briefly: Drug metabolism in rat liver microsomes assessed as oxidation in pyridinyl piperazine region. In kind it is ADME.
Details: not given
For orientation: Microsomes from liver hold many membrane-bound enzymes, among them those of drug oxidation.
`O=C(O)c1ccccc1NC(=O)N1CCC(c2ccccc2C(F)(F)F)CC1`: the Drug metabolism result was “metabolite_notdetected”.
On to `COc1ccc(Cl)cc1NC(=O)N1CCN(c2ncccc2C(F)(F)F)CC1`, for which the Drug metabolism result was “metabolite_detected”.

Tested on in the next series: not listed separately
Nature of the series: Clearance in rat at 0.5 mg/kg, iv. In kind it is ADME, organism-based. On the set-up: dose 0.5 mg/kg, route intravenous. To be noted: in vivo.
`O=C(O)c1ccccc1NC(=O)N1CCC(c2ccccc2C(F)(F)F)CC1`: the clearance (in general, the rate of elimination divided by the concentration) is 0.0833 mL/min/kg.
The molecule `CC1=C(/C=C/C(C)=C/C=C/C(C)=C/C(=O)Nc2ccc(O)cc2)C(C)(C)CCC1` [FENRETINIDE] had a clearance of 5 mL/min/kg. Against the preceding molecule, the clearance is about 60-fold higher.
In turn, `O=C(O)c1ccccc1NC(=O)N1CCN(c2ncccc2C(F)(F)F)CC1` had a clearance of 1.67 mL/min/kg.

Tested on in the next series: not listed separately
Briefly: Mean residence time in mouse at 5 mg/kg, po. The series is classed as ADME, organism-based. On the set-up: dose 5 mg/kg, route oral. To be noted: in vivo.
In the case of `O=C(O)c1ccccc1NC(=O)N1CCC(c2ccccc2C(F)(F)F)CC1`, the MRT (usually a mean duration of stay, worked out from the concentration-time curve) came out at 5.4 h.
The same measure, in the same setting: in the case of `O=C(O)c1ccccc1NC(=O)N1CCN(c2ncccc2C(F)(F)F)CC1` it was 3.2 h.

Tested on in the next series: not listed separately
Nature of the series: Mean residence time in mouse at 30 mg/kg, po. The series is classed as ADME, organism-based. On the set-up: dose 30 mg/kg, route oral. To be noted: in vivo.
`CC1=C(/C=C/C(C)=C/C=C/C(C)=C/C(=O)Nc2ccc(O)cc2)C(C)(C)CCC1` [FENRETINIDE] showed an MRT of 35 h.

For the next series, the species on record is Mus musculus. Nature of the series: Reduction in RBP4 level in chow-fed B6D2F1 mouse after 4 hrs. The series is classed as functional, organism-based.
Details: not given
In the case of `O=C(O)c1ccccc1NC(=O)N1CCC(c2ccccc2C(F)(F)F)CC1`, the Activity entry was “Dose-dependent effect”.

Still in this series, the particulars now being: B6D2F1, 4 h.
For `O=C(O)c1ccccc1NC(=O)N1CCC(c2ccccc2C(F)(F)F)CC1`, the concentration for a half-maximal effect (EC50) (commonly the concentration that produces a half-maximal response) is 980 nM.

Tested on in another series: not listed separately
Nature of the series: Mean residence time in rat at 0.5 mg/kg, iv. The series is classed as ADME, organism-based. More on the design: dose 0.5 mg/kg, route intravenous. To be noted: in vivo.
`O=C(O)c1ccccc1NC(=O)N1CCC(c2ccccc2C(F)(F)F)CC1` registered an MRT of 9.7 h.
`CC1=C(/C=C/C(C)=C/C=C/C(C)=C/C(=O)Nc2ccc(O)cc2)C(C)(C)CCC1` [FENRETINIDE] registered an MRT of 10.5 h. The MRT values of the last two molecules are within 1.5-fold of each other.
With `O=C(O)c1ccccc1NC(=O)N1CCN(c2ncccc2C(F)(F)F)CC1`, the mean residence time (MRT) was 2.6 h.

Tested on in another series: not listed separately
Briefly: AUC in mouse at 30 mg/kg, po. To be noted: plasma. More on the design: dose 30 mg/kg, route oral. The series is classed as ADME, organism-based.
For the molecule `CC1=C(/C=C/C(C)=C/C=C/C(C)=C/C(=O)Nc2ccc(O)cc2)C(C)(C)CCC1` [FENRETINIDE], the exposure (AUC) (usually the area under the concentration-time curve, a measure of exposure) was 1210 ng·h/mL.

Another series is filed under the species Mus musculus. Nature of the series: Reduction in retinol level in chow-fed B6D2F1 mouse at 5 uM after 4 hrs. In kind it is functional, organism-based.
Details: not given
On to `CC1=C(/C=C/C(C)=C/C=C/C(C)=C/C(=O)Nc2ccc(O)cc2)C(C)(C)CCC1` [FENRETINIDE], for which the result was Active.

The test system of a further series is Liver microsome. Briefly: Drug metabolism in human liver microsomes assessed as oxidation in pyridinyl piperazine region. In kind it is ADME.
Details: not given
As to `O=C(O)c1ccccc1NC(=O)N1CCC(c2ccccc2C(F)(F)F)CC1`, the Drug metabolism entry was “metabolite_notdetected”.
With `COc1ccc(Cl)cc1NC(=O)N1CCN(c2ncccc2C(F)(F)F)CC1`, the Drug metabolism result is listed as “metabolite_detected”.

The species named for a further series is Mus musculus. Briefly: Reduction in RBP4 level in chow-fed B6D2F1 mouse at 5 uM after 4 hrs. In kind it is functional, organism-based.
Details: not given
With `CC1=C(/C=C/C(C)=C/C=C/C(C)=C/C(=O)Nc2ccc(O)cc2)C(C)(C)CCC1` [FENRETINIDE], the outcome was Active.

Tested on in another series: not listed separately
Nature of the series: Cmax in mouse at 5 mg/kg, po. The series is classed as ADME, organism-based. More on the design: dose 5 mg/kg, route oral. To be noted: in vivo.
As to `O=C(O)c1ccccc1NC(=O)N1CCC(c2ccccc2C(F)(F)F)CC1`, the maximum concentration (Cmax) (usually the maximum level reached in the sampled fluid or tissue) was found to be 2950 ng/mL.
In turn, `O=C(O)c1ccccc1NC(=O)N1CCN(c2ncccc2C(F)(F)F)CC1` registered a Cmax of 1000 ng/mL.

The target of a further series is T1, Retinol-binding protein 4. Briefly: Displacement of [3H]-retinol from human recombinant RBP4 by scintillation proximity assay.
Details: not given
`COc1ccc(Cl)cc1NC(=O)N1CCN(c2ccccc2Cl)C(=O)C1`: the half-maximal inhibitory concentration (IC50) came to 3600 nM.
Regarding `COc1ccc(Cl)cc1NC(=O)N1CCN(C)CC1`, the IC50 is above 30000 nM.
Still for that read-out and setting: for `O=C(c1cn(Cc2ccccc2)cn1)N1CCN(c2ccccc2Cl)CC1` the value was 440 nM; for `FC(F)(F)c1cccc(CN2CCN(c3ncnc4sc5c(c34)CCC5)CC2)c1`, 600 nM.
`O=C(c1ccco1)N1CCC(c2ccccc2C(F)(F)F)CC1`: the 50% inhibitory concentration (IC50) was found to be 120 nM.
With `COc1ccc(Cl)cc1NC(=O)N1CCN(CCc2ccccc2)CC1`, the IC50 was above 30000 nM.
With `COc1ccc(Cl)cc1NC(=O)N1CCN(c2ccccc2)CC1`, the 50% inhibitory concentration (IC50) came out at 30000 nM.
Consider `COc1ccc(Cl)cc1NC(=O)N1CCN(c2ncccc2Cl)CC1`, for which the IC50 was 2500 nM.
As to `COc1ccc(Cl)cc1NC(=O)N1CCN(c2ncnc3sc4c(c23)CCC4)CC1`, the half-maximal inhibitory concentration (IC50) is 360 nM.
Still for that read-out and setting: for `COc1ccc(Cl)cc1NC(=O)C1CCN(c2ncccc2C(F)(F)F)CC1` the value was 1100 nM; for `COc1ccc(Cl)cc1NC(=O)N1CCN(c2ncccc2C(F)(F)F)CC1`, 230 nM.
Still for that read-out and setting: in the case of `COc1ccc(Cl)cc1NC(=O)N1CCN(c2ncc(C(F)(F)F)cc2C(F)(F)F)CC1` it was 2200 nM; in that of `COc1ccc(Cl)cc1NC(=O)N1CCN(c2ccccc2Cl)CC1`, 890 nM.
On to `FC(F)(F)c1ccnc(N2CCC(c3ccccc3C(F)(F)F)CC2)n1`, for which the IC50 came to 270 nM.
With `O=C(c1cnccc1C(F)(F)F)N1CCC(c2ccccc2C(F)(F)F)CC1`, the concentration for half-maximal inhibition (IC50) is 130 nM.

Tested on in the next series: not listed separately
Briefly: Volume of distribution at steady state in rat at 0.5 mg/kg, iv. The series is classed as ADME, organism-based. Conditions: in vivo, read-out: Vdss. More on the design: dose 0.5 mg/kg, route intravenous.
For `O=C(O)c1ccccc1NC(=O)N1CCC(c2ccccc2C(F)(F)F)CC1`, the Vd worked out at 0.045 L/kg.
Still for that read-out and setting: in the case of `CC1=C(/C=C/C(C)=C/C=C/C(C)=C/C(=O)Nc2ccc(O)cc2)C(C)(C)CCC1` [FENRETINIDE] it was 3.2 L/kg; in that of `O=C(O)c1ccccc1NC(=O)N1CCN(c2ncccc2C(F)(F)F)CC1`, 0.26 L/kg.

Tested on in another series: not listed separately
Nature of the series: Metabolic stability in rat liver microsomes assessed as compound remaining after 30 mins. In kind it is ADME. Conditions: read-out: Stability.
As for `O=C(O)c1ccccc1NC(=O)N1CCC(c2ccccc2C(F)(F)F)CC1`, the remaining at 0.5 h was above 90%.
Regarding `CC1=C(/C=C/C(C)=C/C=C/C(C)=C/C(=O)Nc2ccc(O)cc2)C(C)(C)CCC1` [FENRETINIDE], the remaining at 0.5 h turned out to be 67%.
In the case of `COc1ccc(Cl)cc1NC(=O)N1CCN(c2ncccc2C(F)(F)F)CC1`, the remaining at 0.5 h worked out at 1%.
Consider `O=C(O)c1ccccc1NC(=O)N1CCN(c2ncccc2C(F)(F)F)CC1`, for which the remaining at 0.5 h was 51%.

Another series has as its system Liver microsome. Briefly: Drug metabolism in rat liver microsomes assessed as hydrolysis into primary urea. In kind it is ADME.
Details: not given
For `COc1ccc(Cl)cc1NC(=O)N1CCN(c2ncccc2C(F)(F)F)CC1`, the Drug metabolism result is “metabolite_detected”.
Regarding `O=C(O)c1ccccc1NC(=O)N1CCN(c2ncccc2C(F)(F)F)CC1`, the Drug metabolism result was “metabolite_notdetected”.

For the next series, the species on record is Mus musculus. Briefly: Reduction in retinol level in chow-fed B6D2F1 mouse after 4 hrs. In kind it is functional, organism-based.
Details: not given
For the molecule `O=C(O)c1ccccc1NC(=O)N1CCC(c2ccccc2C(F)(F)F)CC1`, the Activity result is “Dose-dependent effect”.

Still in this series, the particulars now being: B6D2F1, 4 h.
Molecule `O=C(O)c1ccccc1NC(=O)N1CCC(c2ccccc2C(F)(F)F)CC1` displayed an EC50 of 1100 nM.

Tested on in a further series: not listed separately
Briefly: AUC in rat at 0.5 mg/kg, iv. The series is classed as ADME, organism-based. More on the design: dose 0.5 mg/kg, route intravenous. To be noted: plasma.
For `O=C(O)c1ccccc1NC(=O)N1CCC(c2ccccc2C(F)(F)F)CC1`, the AUC was determined as 10700 ng·h/mL.
The molecule `CC1=C(/C=C/C(C)=C/C=C/C(C)=C/C(=O)Nc2ccc(O)cc2)C(C)(C)CCC1` [FENRETINIDE] returned an AUC of 1660 ng·h/mL.
`O=C(O)c1ccccc1NC(=O)N1CCN(c2ncccc2C(F)(F)F)CC1` came in with an AUC of 5080 ng·h/mL. This AUC is about 3.1-fold higher than that of the molecule before.

Tested on in the next series: not listed separately
Briefly: AUC in mouse at 5 mg/kg, po. Conditions: plasma. In kind it is ADME, organism-based. On the set-up: dose 5 mg/kg, route oral.
Molecule `O=C(O)c1ccccc1NC(=O)N1CCC(c2ccccc2C(F)(F)F)CC1` showed an area under the curve (AUC) of 17200 ng·h/mL.
`O=C(O)c1ccccc1NC(=O)N1CCN(c2ncccc2C(F)(F)F)CC1` showed an AUC of 3650 ng·h/mL.

For another series, the system named is Liver microsome. Nature of the series: Drug metabolism in human liver microsomes assessed as hydrolysis primary urea. In kind it is ADME.
Details: not given
As to `COc1ccc(Cl)cc1NC(=O)N1CCN(c2ncccc2C(F)(F)F)CC1`, the Drug metabolism entry is recorded as “metabolite_detected”.
As for `O=C(O)c1ccccc1NC(=O)N1CCN(c2ncccc2C(F)(F)F)CC1`, the Drug metabolism result was “metabolite_notdetected”.

Tested on in the next series: not listed separately
Nature of the series: Cmax in mouse at 30 mg/kg, po. In kind it is ADME, organism-based. Conditions: in vivo. On the set-up: dose 30 mg/kg, route oral.
The molecule `CC1=C(/C=C/C(C)=C/C=C/C(C)=C/C(=O)Nc2ccc(O)cc2)C(C)(C)CCC1` [FENRETINIDE] returned a Cmax of 65 ng/mL.
